Test results taken from PubChem BioAssay (NCI).
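Here, GI50 denotes the concentration required for 50% inhibition of growth. TGI denotes the concentration required for complete inhibition of growth.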

Experiments:
Experiment in all cases: NCI anticancer screen, dose series, 384-well format
NCI-H522 lung = tested on: NCI-H522 lung
SK-MEL-5 melanoma = tested on: SK-MEL-5 melanoma
OVCAR-3 ovarian = tested on: OVCAR-3 ovarian
RXF 393 renal = tested on: RXF 393 renal
HS 578T breast = tested on: HS 578T breast
NCI-H322M lung = tested on: NCI-H322M lung
HCT-15 colon = tested on: HCT-15 colon
OVCAR-8 ovarian = tested on: OVCAR-8 ovarian
UACC-257 melanoma = tested on: UACC-257 melanoma
MDA-MB-468 breast = tested on: MDA-MB-468 breast
MOLT-4 leukemia = tested on: MOLT-4 leukemia
HOP-92 NSCLC = tested on: HOP-92 NSCLC
SK-MEL-28 melanoma = tested on: SK-MEL-28 melanoma
CCRF-CEM leukemia = tested on: CCRF-CEM leukemia
HL-60(TB) leukemia = tested on: HL-60(TB) leukemia
MDA-MB-435 melanoma = tested on: MDA-MB-435 melanoma
SF-268 CNS = tested on: SF-268 CNS
DU-145 prostate = tested on: DU-145 prostate
MDA-MB-231 breast = tested on: MDA-MB-231 breast
SNB-75 CNS = tested on: SNB-75 CNS
NCI-H226 lung = tested on: NCI-H226 lung
SNB-19 CNS = tested on: SNB-19 CNS
NCI/ADR-RES ovarian = tested on: NCI/ADR-RES ovarian
SK-OV-3 ovarian = tested on: SK-OV-3 ovarian
TK-10 renal = tested on: TK-10 renal
UO-31 renal = tested on: UO-31 renal
HOP-62 NSCLC = tested on: HOP-62 NSCLC
OVCAR-5 ovarian = tested on: OVCAR-5 ovarian
786-0 renal = tested on: 786-0 renal
NCI-H23 lung = tested on: NCI-H23 lung
ACHN renal = tested on: ACHN renal
SN12C renal = tested on: SN12C renal
MCF7 breast = tested on: MCF7 breast
OVCAR-4 ovarian = tested on: OVCAR-4 ovarian
KM12 colon = tested on: KM12 colon
CAKI-1 renal = tested on: CAKI-1 renal
SF-539 CNS = tested on: SF-539 CNS
PC-3 prostate = tested on: PC-3 prostate
A498 renal = tested on: A498 renal
HT29 colon = tested on: HT29 colon
U251 glioblastoma = tested on: U251 glioblastoma
RPMI-8226 leukemia = tested on: RPMI-8226 leukemia
COLO 205 colon = tested on: COLO 205 colon
UACC-62 melanoma = tested on: UACC-62 melanoma
K-562 leukemia = tested on: K-562 leukemia
LOX IMVI melanoma = tested on: LOX IMVI melanoma
BT-549 breast = tested on: BT-549 breast
NCI-H460 NSCLC = tested on: NCI-H460 NSCLC
MALME-3M melanoma = tested on: MALME-3M melanoma
M14 melanoma = tested on: M14 melanoma
SF-295 CNS = tested on: SF-295 CNS
HCC-2998 colon = tested on: HCC-2998 colon
IGROV1 ovarian = tested on: IGROV1 ovarian
SW-620 colon = tested on: SW-620 colon
A549 NSCLC = tested on: A549 NSCLC
HCT-116 colon = tested on: HCT-116 colon
EKVX NSCLC = tested on: EKVX NSCLC
T-47D breast = tested on: T-47D breast

## CN(CCO)C1CCN(c2ccc(Nc3ncc4c5ccnc(F)c5n(C5CCCC5)c4n3)nc2)CC1
NCI-H522 lung
  GI50: 1.77 µM
  TGI: 3.17 µM
SK-MEL-5 melanoma
  GI50: 0.48 µM
  TGI: 2.03 µM
OVCAR-3 ovarian
  GI50: 1.87 µM
  TGI: 3.29 µM
RXF 393 renal
  GI50: 1.28 µM
  TGI: 2.55 µM
HS 578T breast
  GI50: 1.42 µM
  TGI: 3.2 µM
NCI-H322M lung
  GI50: 1.34 µM
  TGI: 2.64 µM
HCT-15 colon
  GI50: 1.08 µM
  TGI: 2.32 µM
OVCAR-8 ovarian
  GI50: 1.62 µM
  TGI: 3.01 µM
UACC-257 melanoma
  GI50: 1.55 µM
  TGI: 2.9 µM
MDA-MB-468 breast
  GI50: 1.63 µM
  TGI: 2.99 µM
MOLT-4 leukemia
  GI50: 0.0624 µM
  TGI: 0.812 µM
HOP-92 NSCLC
  GI50: 3.02 µM
  TGI: 15.4 µM
SK-MEL-28 melanoma
  GI50: 4.06 µM
  TGI: 16.2 µM
CCRF-CEM leukemia
  GI50: 0.0893 µM
  TGI: 1.25 µM
HL-60(TB) leukemia
  GI50: 0.0521 µM
  TGI: 1.76 µM
MDA-MB-435 melanoma
  GI50: 2.26 µM
  TGI: 9.49 µM
SF-268 CNS
  GI50: 0.0794 µM
  TGI: 0.941 µM
DU-145 prostate
  GI50: 1.72 µM
  TGI: 3.13 µM
MDA-MB-231 breast
  GI50: 1.26 µM
  TGI: 2.71 µM
SNB-75 CNS
  GI50: 1.48 µM
  TGI: 2.81 µM
NCI-H226 lung
  GI50: 5.22 µM
  TGI: > 100 µM
SNB-19 CNS
  GI50: 1.37 µM
  TGI: 2.76 µM
NCI/ADR-RES ovarian
  GI50: 1.74 µM
  TGI: 3.17 µM
SK-OV-3 ovarian
  GI50: 1.45 µM
  TGI: 2.78 µM
TK-10 renal
  GI50: 1.37 µM
  TGI: 2.7 µM
UO-31 renal
  GI50: 1.2 µM
  TGI: 2.45 µM
HOP-62 NSCLC
  GI50: 1.17 µM
  TGI: 2.42 µM
OVCAR-5 ovarian
  GI50: 0.885 µM
  TGI: > 100 µM
786-0 renal
  GI50: 1.15 µM
  TGI: 2.37 µM
NCI-H23 lung
  GI50: 1.2 µM
  TGI: 2.46 µM
ACHN renal
  GI50: 1 µM
  TGI: 2.19 µM
SN12C renal
  GI50: 3.02 µM
  TGI: 14.9 µM
MCF7 breast
  GI50: 0.353 µM
  TGI: 1.76 µM
OVCAR-4 ovarian
  GI50: 1.73 µM
  TGI: 3.13 µM
KM12 colon
  GI50: 0.0568 µM
  TGI: 1.28 µM
CAKI-1 renal
  GI50: 0.868 µM
  TGI: 2.15 µM
SF-539 CNS
  GI50: 1.38 µM
  TGI: 2.68 µM
PC-3 prostate
  GI50: 1.43 µM
  TGI: 2.79 µM
A498 renal
  GI50: 0.853 µM
  TGI: 2.12 µM
HT29 colon
  GI50: 1.02 µM
  TGI: 2.23 µM
U251 glioblastoma
  GI50: 1.12 µM
  TGI: 2.35 µM
RPMI-8226 leukemia
  GI50: 0.0477 µM
  TGI: 1.12 µM
COLO 205 colon
  GI50: 0.373 µM
  TGI: 1.95 µM
UACC-62 melanoma
  GI50: 1.35 µM
  TGI: 2.64 µM
K-562 leukemia
  GI50: 0.664 µM
  TGI: 2.09 µM
LOX IMVI melanoma
  GI50: 0.977 µM
  TGI: 2.18 µM
BT-549 breast
  GI50: 1.49 µM
  TGI: 2.83 µM
NCI-H460 NSCLC
  GI50: 0.188 µM
  TGI: 1.81 µM
MALME-3M melanoma
  GI50: 1.34 µM
  TGI: 2.64 µM
M14 melanoma
  GI50: 1.19 µM
  TGI: 2.44 µM
SF-295 CNS
  GI50: 0.881 µM
  TGI: 2.15 µM
HCC-2998 colon
  GI50: 0.655 µM
  TGI: 2.01 µM
IGROV1 ovarian
  GI50: 1.05 µM
  TGI: 2.26 µM
SW-620 colon
  GI50: 0.574 µM
  TGI: 2.01 µM
A549 NSCLC
  GI50: 0.619 µM
  TGI: 1.99 µM
HCT-116 colon
  GI50: 0.684 µM
  TGI: 2.05 µM
EKVX NSCLC
  GI50: 1.27 µM
  TGI: 2.56 µM
T-47D breast
  GI50: 1.88 µM
  TGI: 67.5 µM
